Laboratory results from publication doi:10.1101/2024.08.19.608619, “Discovery of potent SARS-CoV-2 nsp3 macrodomain inhibitors uncovers lack of translation to cellular antiviral response” (bioRxiv, 2024).
Several values for one entry are separate records, joined by “and”; a condition that tells them apart may be missing. Equal values may be shown once.

system: SARS-CoV-2, isolate USA-WA1/2020; test: microbe, parasite or virus in culture; format: cell-based; details: HeLa-ACE2 SARS-CoV-2 antiviral effect without P-gp inhibitor; maximum measured response

Row | Structure (SMILES) | perc_max_measured [%]
1 | CC(C)[C@@H](Nc1ncnc2[nH]c(-c3cnn(C)c3C#N)cc12)c1ccc2c(n1)OCCO2 [ASAP-0010716] | 105.062

same assay, conditions: HeLa-ACE2 SARS-CoV-2 antiviral effect without P-gp inhibitor; maximum measured response of dose series

Row | Structure (SMILES) | perc_max_measured [%]
2 | CC(C)[C@@H](Nc1ncnc2[nH]c(-c3cnn(C)c3C#N)cc12)c1ccc2c(n1)OCCO2 [ASAP-0010716] | 119.294

same assay, conditions: HeLa-ACE2 SARS-CoV-2 antiviral effect without P-gp inhibitor; minimum measured response

Row | Structure (SMILES) | perc_min_measured [%]
3 | CC(C)[C@@H](Nc1ncnc2[nH]c(-c3cnn(C)c3C#N)cc12)c1ccc2c(n1)OCCO2 [ASAP-0010716] | 1.471

same assay, conditions: HeLa-ACE2 SARS-CoV-2 antiviral effect without P-gp inhibitor; minimum measured response of dose series

Row | Structure (SMILES) | perc_min_measured [%]
4 | CC(C)[C@@H](Nc1ncnc2[nH]c(-c3cnn(C)c3C#N)cc12)c1ccc2c(n1)OCCO2 [ASAP-0010716] | 1.653

same assay, conditions: HeLa-ACE2 SARS-CoV-2 antiviral effect without P-gp inhibitor; read-out: ec90

Row | Structure (SMILES) | EC90
5 | CC(C)[C@@H](Nc1ncnc2[nH]c(-c3cnn(C)c3C#N)cc12)c1ccc2c(n1)OCCO2 [ASAP-0010716] | 7.55 µM and 9.22 µM

system: not listed separately; test: In vitro mouse hepatocyte stability; format: in vitro ADME; details: not given
Excerpt: (§1) Supplement media-1.zip/Hepatocyte_Stability.csv, table | column: clint; t_half

Row | Structure (SMILES) | clint [uL/min/1E6 cells] | t_half [min]
6 | CC(C)[C@@H](Nc1ncnc2[nH]c(-c3cnn(C)c3C#N)cc12)c1ccc2c(n1)OCCO2 [ASAP-0010716] | 217.0 | 3.19

system: not listed separately; test: In vitro dog hepatocyte stability; format: in vitro ADME; details: not given
Excerpt: as §1

Row | Structure (SMILES) | clint [uL/min/1E6 cells] | t_half [min]
7 | CC(C)[C@@H](Nc1ncnc2[nH]c(-c3cnn(C)c3C#N)cc12)c1ccc2c(n1)OCCO2 [ASAP-0010716] | 3.91 | 177.0

molecular target: T1, 5-HT transporter (h) (Homo sapiens, UniProt P31645); test: In vitro CEREP profiling, 5-HT transporter (h) (antagonist radioligand); details: test compound concentration 10 uM
T1 construct: purchased Eurofins Cerep (SafetyScreen44), recognised from the panel format
T1 sequence (P31645 whole entry): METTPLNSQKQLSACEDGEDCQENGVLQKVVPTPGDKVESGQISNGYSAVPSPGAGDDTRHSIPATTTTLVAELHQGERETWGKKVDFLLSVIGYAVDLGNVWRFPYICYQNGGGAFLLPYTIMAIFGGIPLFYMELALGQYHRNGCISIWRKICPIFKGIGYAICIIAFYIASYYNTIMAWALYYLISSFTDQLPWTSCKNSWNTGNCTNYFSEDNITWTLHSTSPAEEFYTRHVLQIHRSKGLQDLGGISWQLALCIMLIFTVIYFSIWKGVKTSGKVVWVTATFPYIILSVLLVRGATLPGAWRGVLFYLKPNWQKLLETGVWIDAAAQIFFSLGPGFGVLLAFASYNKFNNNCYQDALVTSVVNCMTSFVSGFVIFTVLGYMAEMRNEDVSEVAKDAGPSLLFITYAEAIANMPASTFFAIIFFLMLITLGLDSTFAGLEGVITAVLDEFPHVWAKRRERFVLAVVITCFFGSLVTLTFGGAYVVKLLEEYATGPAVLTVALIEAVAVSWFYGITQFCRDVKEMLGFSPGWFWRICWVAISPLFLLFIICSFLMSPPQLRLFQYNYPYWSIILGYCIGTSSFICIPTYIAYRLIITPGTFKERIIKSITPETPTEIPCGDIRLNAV
Excerpt: (§2) Supplement media-1.zip/Safety_Panel_Profile.csv, table | column: perc_inhibition

Row | Structure (SMILES) | perc_inhibition: % inhibition of the binding of a ligand specific for each target, 5-HT transporter (h) (antagonist radioligand) [%]
8 | CC(C)[C@@H](Nc1ncnc2[nH]c(-c3cnn(C)c3C#N)cc12)c1ccc2c(n1)OCCO2 [ASAP-0010716] | 9

molecular target: T2, alpha1A (h) (Homo sapiens, UniProt P35348); test: In vitro CEREP profiling, alpha1A (h) (antagonist radioligand); format: binding; details: test compound 10 uM
T2 construct: purchased Eurofins Cerep (SafetyScreen44), recognised from the panel format
T2 sequence (P35348 1-466): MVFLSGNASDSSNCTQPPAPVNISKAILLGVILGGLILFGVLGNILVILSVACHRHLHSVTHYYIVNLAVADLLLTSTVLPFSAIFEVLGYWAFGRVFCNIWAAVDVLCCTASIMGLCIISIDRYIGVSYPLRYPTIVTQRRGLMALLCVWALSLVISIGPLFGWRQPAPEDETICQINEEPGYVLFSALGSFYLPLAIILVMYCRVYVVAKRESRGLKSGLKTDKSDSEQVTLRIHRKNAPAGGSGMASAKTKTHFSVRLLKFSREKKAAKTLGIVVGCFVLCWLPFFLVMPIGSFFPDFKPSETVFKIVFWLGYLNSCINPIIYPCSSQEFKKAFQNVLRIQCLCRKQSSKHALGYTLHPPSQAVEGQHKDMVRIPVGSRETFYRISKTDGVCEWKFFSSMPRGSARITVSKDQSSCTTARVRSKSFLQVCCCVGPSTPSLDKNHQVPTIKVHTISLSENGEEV
Excerpt: as §2

Row | Structure (SMILES) | perc_inhibition (% inhibition of the binding of a ligand specific for each target) [%]
9 | CC(C)[C@@H](Nc1ncnc2[nH]c(-c3cnn(C)c3C#N)cc12)c1ccc2c(n1)OCCO2 [ASAP-0010716] | 11

molecular target: T3, H1 (h) (Homo sapiens, UniProt P35367); test: In vitro CEREP profiling, H1 (h) (antagonist radioligand); format: binding; details: test compound concentration 10 uM
T3 construct: purchased Eurofins Cerep (SafetyScreen44), recognised from the panel format
T3 sequence (P35367 whole entry): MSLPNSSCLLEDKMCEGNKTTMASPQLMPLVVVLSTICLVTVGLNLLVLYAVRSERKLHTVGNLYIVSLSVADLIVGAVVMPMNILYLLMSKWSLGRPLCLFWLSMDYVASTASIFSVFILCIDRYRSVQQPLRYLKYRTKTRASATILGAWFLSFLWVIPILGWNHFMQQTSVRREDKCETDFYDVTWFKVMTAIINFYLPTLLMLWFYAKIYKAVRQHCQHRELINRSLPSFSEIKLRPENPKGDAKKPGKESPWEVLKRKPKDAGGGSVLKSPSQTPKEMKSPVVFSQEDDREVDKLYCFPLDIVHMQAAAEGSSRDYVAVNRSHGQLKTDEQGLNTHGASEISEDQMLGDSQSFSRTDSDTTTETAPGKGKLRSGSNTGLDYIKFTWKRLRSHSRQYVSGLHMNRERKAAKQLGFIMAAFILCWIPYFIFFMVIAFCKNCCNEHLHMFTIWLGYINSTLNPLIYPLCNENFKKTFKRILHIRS
Excerpt: as §2

Row | Structure (SMILES) | perc_inhibition (% inhibition of the binding of a ligand specific for each target) [%]
10 | CC(C)[C@@H](Nc1ncnc2[nH]c(-c3cnn(C)c3C#N)cc12)c1ccc2c(n1)OCCO2 [ASAP-0010716] | 0

molecular target: T4, beta2 (h) (Homo sapiens, UniProt P07550); test: In vitro CEREP profiling, beta2 (h) (antagonist radioligand); format: binding; details: test compound 10 uM
T4 construct: purchased Eurofins Cerep (SafetyScreen44), recognised from the panel format
T4 sequence (P07550 whole entry): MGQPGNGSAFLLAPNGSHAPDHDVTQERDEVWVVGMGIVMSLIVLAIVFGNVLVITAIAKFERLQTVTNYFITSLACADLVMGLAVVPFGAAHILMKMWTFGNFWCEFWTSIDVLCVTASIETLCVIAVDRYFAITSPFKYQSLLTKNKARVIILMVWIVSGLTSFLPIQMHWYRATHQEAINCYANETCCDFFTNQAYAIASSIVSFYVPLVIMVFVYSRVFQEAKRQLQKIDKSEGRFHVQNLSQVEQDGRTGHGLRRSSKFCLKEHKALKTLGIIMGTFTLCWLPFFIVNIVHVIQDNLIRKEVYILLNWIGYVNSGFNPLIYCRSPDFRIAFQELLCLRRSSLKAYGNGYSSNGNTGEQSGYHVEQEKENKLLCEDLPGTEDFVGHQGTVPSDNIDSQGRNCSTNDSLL
Excerpt: as §2

Row | Structure (SMILES) | perc_inhibition (% inhibition of the binding of a ligand specific for each target) [%]
11 | CC(C)[C@@H](Nc1ncnc2[nH]c(-c3cnn(C)c3C#N)cc12)c1ccc2c(n1)OCCO2 [ASAP-0010716] | 3

system: AR(h); test: In vitro CEREP profiling, AR(h) (agonist radioligand); format: binding, human; details: test compound concentration 10 uM
Excerpt: as §2

Row | Structure (SMILES) | perc_inhibition (% inhibition of the binding of a ligand specific for each target) [%]
12 | CC(C)[C@@H](Nc1ncnc2[nH]c(-c3cnn(C)c3C#N)cc12)c1ccc2c(n1)OCCO2 [ASAP-0010716] | 12

molecular target: T5, acetylcholinesterase (h) (Homo sapiens, UniProt P22303); test: In vitro CEREP profiling, acetylcholinesterase (h); format: biochemical; details: test compound concentration 10 uM; Enzyme and Cell-based assays
T5 construct: purchased Eurofins Cerep (SafetyScreen44), recognised from the panel format
T5 sequence (P22303 32-614): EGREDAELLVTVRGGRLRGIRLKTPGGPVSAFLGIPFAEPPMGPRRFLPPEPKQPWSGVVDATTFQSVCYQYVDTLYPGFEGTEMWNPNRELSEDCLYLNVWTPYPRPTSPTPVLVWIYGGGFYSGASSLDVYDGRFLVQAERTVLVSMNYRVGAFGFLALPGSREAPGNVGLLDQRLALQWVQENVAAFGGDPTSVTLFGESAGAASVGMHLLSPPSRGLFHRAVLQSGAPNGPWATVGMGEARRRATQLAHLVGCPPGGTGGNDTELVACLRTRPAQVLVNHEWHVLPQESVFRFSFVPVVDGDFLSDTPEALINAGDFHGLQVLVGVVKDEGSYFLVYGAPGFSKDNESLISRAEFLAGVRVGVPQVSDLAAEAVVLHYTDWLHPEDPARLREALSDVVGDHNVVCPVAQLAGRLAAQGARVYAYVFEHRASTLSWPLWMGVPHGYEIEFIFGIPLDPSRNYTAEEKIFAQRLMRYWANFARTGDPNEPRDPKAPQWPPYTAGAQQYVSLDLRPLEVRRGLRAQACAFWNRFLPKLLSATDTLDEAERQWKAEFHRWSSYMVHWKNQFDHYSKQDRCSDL
Excerpt: as §2

Row | Structure (SMILES) | perc_inhibition: % inhibition of control enzyme activity, acetylcholinesterase (h) [%]
13 | CC(C)[C@@H](Nc1ncnc2[nH]c(-c3cnn(C)c3C#N)cc12)c1ccc2c(n1)OCCO2 [ASAP-0010716] | 22

molecular target: T6, CB1 (h) (Homo sapiens, UniProt P21554); test: In vitro CEREP profiling, CB1 (h) (agonist radioligand); format: binding; details: test compound 10 uM
T6 construct: purchased Eurofins Cerep (SafetyScreen44), recognised from the panel format
T6 sequence (P21554 whole entry): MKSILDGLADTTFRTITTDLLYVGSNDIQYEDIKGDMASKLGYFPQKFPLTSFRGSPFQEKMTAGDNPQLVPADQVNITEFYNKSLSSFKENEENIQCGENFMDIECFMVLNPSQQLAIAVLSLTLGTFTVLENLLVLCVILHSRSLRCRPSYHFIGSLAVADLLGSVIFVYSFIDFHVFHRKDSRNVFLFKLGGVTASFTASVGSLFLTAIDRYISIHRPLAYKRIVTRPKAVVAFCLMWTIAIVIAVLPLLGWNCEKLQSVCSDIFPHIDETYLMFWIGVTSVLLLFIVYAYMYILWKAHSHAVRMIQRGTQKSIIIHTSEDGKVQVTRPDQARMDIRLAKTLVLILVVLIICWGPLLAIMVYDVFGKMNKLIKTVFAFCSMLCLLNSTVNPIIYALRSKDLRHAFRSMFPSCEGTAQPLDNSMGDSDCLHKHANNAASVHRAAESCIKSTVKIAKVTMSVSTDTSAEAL
Excerpt: as §2

Row | Structure (SMILES) | perc_inhibition (% inhibition of the binding of a ligand specific for each target) [%]
14 | CC(C)[C@@H](Nc1ncnc2[nH]c(-c3cnn(C)c3C#N)cc12)c1ccc2c(n1)OCCO2 [ASAP-0010716] | 14

molecular target: T7, mu (MOP) (h) (Homo sapiens, UniProt P35372); test: In vitro CEREP profiling, mu (MOP) (h) (agonist radioligand); format: binding; details: test compound concentration 10 uM
T7 construct: purchased Eurofins Cerep (SafetyScreen44), recognised from the panel format
T7 sequence (P35372 whole entry): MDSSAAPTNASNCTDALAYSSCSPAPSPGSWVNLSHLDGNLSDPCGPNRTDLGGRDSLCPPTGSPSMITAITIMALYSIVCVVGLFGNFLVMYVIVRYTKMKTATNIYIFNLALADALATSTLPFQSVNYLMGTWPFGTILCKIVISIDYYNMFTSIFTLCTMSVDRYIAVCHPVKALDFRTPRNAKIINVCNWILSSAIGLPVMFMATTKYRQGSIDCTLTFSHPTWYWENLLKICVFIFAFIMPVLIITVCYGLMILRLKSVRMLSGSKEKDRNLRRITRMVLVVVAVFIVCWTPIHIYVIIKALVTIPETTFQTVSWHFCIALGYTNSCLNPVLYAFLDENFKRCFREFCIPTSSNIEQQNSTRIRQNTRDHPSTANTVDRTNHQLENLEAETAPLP
Excerpt: as §2

Row | Structure (SMILES) | perc_inhibition (% inhibition of the binding of a ligand specific for each target) [%]
15 | CC(C)[C@@H](Nc1ncnc2[nH]c(-c3cnn(C)c3C#N)cc12)c1ccc2c(n1)OCCO2 [ASAP-0010716] | 77

system: HeLa-ACE2 cells; test: not given; details: HeLa-ACE2 cytotoxicity

Row | Structure (SMILES) | CC50 [µM] | cc10 [µM]
16 | CC(C)[C@@H](Nc1ncnc2[nH]c(-c3cnn(C)c3C#N)cc12)c1ccc2c(n1)OCCO2 [ASAP-0010716] | > 20 | > 20.0

same assay, conditions: HeLa-ACE2 cytotoxicity; highest measured response of the dose series

Row | Structure (SMILES) | perc_max_measured
17 | CC(C)[C@@H](Nc1ncnc2[nH]c(-c3cnn(C)c3C#N)cc12)c1ccc2c(n1)OCCO2 [ASAP-0010716] | 137.444% and 97.941%

same assay, conditions: HeLa-ACE2 cytotoxicity; lowest measured response of the dose series

Row | Structure (SMILES) | perc_min_measured
18 | CC(C)[C@@H](Nc1ncnc2[nH]c(-c3cnn(C)c3C#N)cc12)c1ccc2c(n1)OCCO2 [ASAP-0010716] | 84.699% and 78.982%

molecular target: T8, 5-HT1A (h) (Homo sapiens, UniProt P08908); test: In vitro CEREP profiling, 5-HT1A (h) (agonist radioligand); format: binding; details: test compound concentration 10 uM
T8 construct: purchased Eurofins Cerep (SafetyScreen44), recognised from the panel format
T8 sequence (P08908 1-422): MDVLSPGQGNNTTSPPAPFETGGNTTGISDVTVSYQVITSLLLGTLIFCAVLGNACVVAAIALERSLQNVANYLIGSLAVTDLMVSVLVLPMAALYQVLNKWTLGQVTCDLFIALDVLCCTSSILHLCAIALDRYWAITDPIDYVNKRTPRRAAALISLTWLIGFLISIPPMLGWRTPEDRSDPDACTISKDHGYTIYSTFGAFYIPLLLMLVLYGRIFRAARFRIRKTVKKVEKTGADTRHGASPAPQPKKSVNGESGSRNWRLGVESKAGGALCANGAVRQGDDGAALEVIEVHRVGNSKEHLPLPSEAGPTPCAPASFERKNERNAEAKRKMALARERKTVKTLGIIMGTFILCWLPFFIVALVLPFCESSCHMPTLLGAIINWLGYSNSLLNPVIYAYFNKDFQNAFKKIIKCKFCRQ
Excerpt: as §2

Row | Structure (SMILES) | perc_inhibition (% inhibition of the binding of a ligand specific for each target) [%]
19 | CC(C)[C@@H](Nc1ncnc2[nH]c(-c3cnn(C)c3C#N)cc12)c1ccc2c(n1)OCCO2 [ASAP-0010716] | 22

molecular target: T9, ETA (h) (Homo sapiens, UniProt P25101); test: In vitro CEREP profiling, ETA (h) (agonist radioligand); format: binding; details: test compound 10 uM
T9 construct: purchased Eurofins Cerep (SafetyScreen44), recognised from the panel format
T9 sequence (P25101 21-427): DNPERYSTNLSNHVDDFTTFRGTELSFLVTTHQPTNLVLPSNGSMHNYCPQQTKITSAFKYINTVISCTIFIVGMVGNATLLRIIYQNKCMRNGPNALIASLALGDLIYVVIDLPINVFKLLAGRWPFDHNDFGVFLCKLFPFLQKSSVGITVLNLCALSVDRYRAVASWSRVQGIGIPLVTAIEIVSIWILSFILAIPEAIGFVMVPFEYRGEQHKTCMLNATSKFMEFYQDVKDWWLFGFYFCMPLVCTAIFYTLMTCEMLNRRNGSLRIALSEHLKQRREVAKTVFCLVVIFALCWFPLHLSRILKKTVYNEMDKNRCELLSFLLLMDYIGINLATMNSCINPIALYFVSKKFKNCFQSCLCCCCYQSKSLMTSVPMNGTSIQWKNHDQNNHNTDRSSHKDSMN
Excerpt: as §2

Row | Structure (SMILES) | perc_inhibition (% inhibition of the binding of a ligand specific for each target) [%]
20 | CC(C)[C@@H](Nc1ncnc2[nH]c(-c3cnn(C)c3C#N)cc12)c1ccc2c(n1)OCCO2 [ASAP-0010716] | 5

system: not listed separately; test: In vitro dog liver microsomal stability; format: in vitro ADME; details: not given
Excerpt: Supplement media-1.zip/Hepatic_Microsomal_Stability.csv, table | column: clint; t_half

Row | Structure (SMILES) | clint [µL/min/mg] | t_half [min]
21 | CC(C)[C@@H](Nc1ncnc2[nH]c(-c3cnn(C)c3C#N)cc12)c1ccc2c(n1)OCCO2 [ASAP-0010716] | 23.2 | 29.8
